{"source": "paper PMC11661808", "about": "(ADMET & DMPK, 2024)", "key": {"[1]": {"test": "Ketoconazole concentration in plasma and ocular tissues after single topical ocular instillation", "format": "in vivo, Sprague Dawley rats", "conditions": "for concentration at 5 min / concentration at 120 min / concentration at 30 min: Sprague Dawley, rat, topical; for concentration at 120 min: 120 min post-dose; for concentration at 30 min: 30 min post-dose", "protocol": "The mixture was stirred at 40 °C. Subsequently, 0.040 mL of 1 M hydrochloric acid was added, and the mixture was stirred at 40 °C until it was completely dissolved. 0.250 mL of hydroxypropyl beta-cyclodextrin (HPβCD) was added and vortexed and stirred at 40 °C until clear. 0.005 mL of 1 M sodium hydroxide was added to adjust the pH to 6.5-7.0 while stirring magnetically at 40 °C, and 0.038 mL of water was added, vortexed, and stirred at 40 °C until clear.\nEach tissue was then homogenized using an Ultrasonic Cell Crusher for 5 seconds. The cornea and retina homogenates were sonicated for 10 min, while the vitreous was sonicated for 30 min at 0 °C prior to bioanalysis. The ocular tissue homogenates were stored in a -80 °C freezer before bioanalysis.\nAll samples underwent protein precipitation for pharmacokinetic analysis. Plasma and three types of tissue homogenate samples (50 μL each) were treated with 5 μL of methanol and then quenched with a 200 μL methanol and acetonitrile mixture (1:1, v/v) containing 50 ng/mL terfenadine as an internal standard (ISTD). After vortexing for 1 min and centrifuging at 4000 rpm for 15 min, the supernatant was transferred and diluted 10-fold with a methanol/water solution (1:1, v/v, containing 0.1 % formic acid) for LC-MS/MS analysis. The working solution was prepared with a concentration range of 50.0 to 100,000 ng/mL.\nThe quantitative sample analysis was performed on a Shimadzu LC-20AD (Shimadzu, Japan) - API 4000 mass spectrometer (SCIEX, Canada)."}, "[2]": {"conditions": "humans, cited from earlier work"}, "[3]": {"conditions": "in vivo", "description": "(§1) Nine rats were randomly divided into three groups and their body weights were recorded from 254 to 281 g. […] Rats were sacrificed at 5, 30 and 120 min post-dose (n = 3 per time point). Cornea, retina, and vitreous humour samples were collected, washed in saline three times and weighed, while blood samples were taken from the heart puncture. Tissue samples were initially stored on dry ice, while the blood samples were centrifuged at 4 °C and 6000 rpm for 10 min. Subsequently, the plasma samples were prepared and also stored on dry ice. Ultimately, all samples were cryopreserved in a -80 °C freezer after harvest.\n(§2) Rat plasma (400 RL, 44.4 LL/rat at each time point) was pooled from 3-time points utilizing the equal volume method and subsequently precipitated with acetonitrile containing 0.1 % formic acid at a ratio of 1:3. Homogenate samples of rat cornea, retina, and vitreous humour (600 L, 66.7 LL /rat) were pooled from three time points individually utilizing the equal volume and transferred into a 15 mL centrifuge tube and subjected to precipitation with acetonitrile containing 0.1 % formic acid at the same ratio of 1:3. Following centrifugation, the supernatant was evaporated under a stream of nitrogen gas. The residues from plasma and rat retina were reconstituted with 150 L of 10 % acetonitrile in H2O (with 0.1 % formic acid), while the residues from the rat cornea and vitreous humour were reconstituted with 100 L of 10 % acetonitrile in H2O (0.1 % formic acid). Four types of blank samples were processed in a similar manner. Ultimately, 10,L samples of each tissue were injected for analysis using the Ultimate 3000-Q-Exactive Plus system.\n(§3) Mobile phase A consisted of water containing 0.1 % formic acid, while mobile phase B consisted of acetonitrile with 0.1 % formic acid. […] Mass scanning was performed on the Q-Exactive Plus using positive-ion full MS/dd-MS2 mode with a range from m/z 80 to 900. The collision energy was set at 30, 40 and 50 eV. The mass resolution was set as 70,000 for full MS, and 17,500 for dd-MS2 scans, and the mass error limit was set as 5.0 ppm."}, "[4]": {"test": "Metabolite identification and profiling in pooled rat plasma, cornea, retina and vitreous humour after eye drop administration", "conditions": "for Relative peak area abundance, COR: pooled rat cornea homogenate (5, 30, 120 min); for Relative peak area abundance, VH: pooled rat vitreous humour homogenate (5, 30, 120 min); for Relative peak area abundance, PLA: pooled rat plasma (5, 30, 120 min)", "description": "as §1, §2, §3"}, "[5]": {"conditions": "plasma, 300 μg per rat, rat plasma, read-out: mean concentration in plasma"}, "[6]": {"conditions": "selected ion chromatographic peak areas"}}, "note": "Read-outs that look alike come from different tables or passages of the source.", "data": [{"smiles": "CC(=O)N1CCN(c2ccc(OCC3COC(Cn4ccnc4)(c4ccc(Cl)cc4Cl)O3)cc2)CC1", "note": "(centres unmarked) [Ketoconazole]", "values": [{"measurement": "concentration at 5 min", "setting": "[1]; cornea, 150 μg per eye, rat cornea, left eye, 5 min post-dose, 150 μg per eye, read-out: mean concentration in cornea, left eye", "value": 416000, "unit": "ng/g"}, {"measurement": "concentration at 5 min", "setting": "[1]; cornea, 150 μg per eye, rat cornea, right eye, 5 min post-dose, 150 μg per eye, read-out: mean concentration in cornea, right eye", "value": 430000, "unit": "ng/g"}, {"measurement": "concentration at 5 min", "setting": "[1]; cornea, 300 μg per rat, mean ketoconazole concentration in cornea, rat cornea, 5 min post-dose, 300 μg/rat topical ocular", "value": 423000, "unit": "ng/g"}, {"measurement": "concentration at 120 min", "setting": "[1]; cornea, 300 μg per rat, mean ketoconazole concentration in cornea, rat cornea, mean of left and right eye", "value": 8360, "unit": "ng/g"}, {"measurement": "concentration at 30 min", "setting": "[1]; cornea, 300 μg per rat, rat cornea, mean of left and right eye, read-out: mean concentration in cornea", "value": 113000, "unit": "ng/g"}, {"measurement": "concentration at 120 min", "setting": "[1]; plasma, 300 μg per rat, mean ketoconazole concentration in plasma, rat plasma, 300 μg/rat topical ocular", "value": 38.4, "unit": "ng/mL"}, {"measurement": "concentration at 5 min", "setting": "[1]; plasma, 300 μg per rat, rat plasma, 5 min post-dose, read-out: mean concentration in plasma", "value": 445, "unit": "ng/mL"}, {"measurement": "concentration at 30 min", "setting": "[1]; [5]", "value": 303, "unit": "ng/mL"}, {"measurement": "concentration at 120 min", "setting": "[1]; [5]", "value": 38.4, "unit": "ng/mL"}, {"measurement": "concentration at 5 min", "setting": "[1]; retina, 150 μg per eye, rat retina, left eye, 5 min post-dose, 150 μg per eye, read-out: mean concentration in retina, left eye", "value": 439, "unit": "ng/g"}, {"measurement": "concentration at 5 min", "setting": "[1]; retina, 150 μg per eye, rat retina, right eye, 5 min post-dose, 150 μg per eye, read-out: mean concentration in retina, right eye", "value": 552, "unit": "ng/g"}, {"measurement": "concentration at 5 min", "setting": "[1]; retina, 300 μg per rat, mean ketoconazole concentration in retina, rat retina, 5 min post-dose, 300 μg/rat topical ocular", "value": 4960, "unit": "ng/g"}, {"measurement": "concentration at 120 min", "setting": "[1]; retina, 300 μg per rat, mean ketoconazole concentration in retina, rat retina, mean of left and right eye", "value": 94.4, "unit": "ng/g"}, {"measurement": "concentration at 30 min", "setting": "[1]; retina, 300 μg per rat, rat retina, mean of left and right eye, read-out: mean concentration in retina", "value": 1470, "unit": "ng/g"}, {"measurement": "concentration at 5 min", "setting": "[1]; vitreous humour, 150 μg per eye, rat vitreous humour, left eye, 5 min post-dose, 150 μg per eye, read-out: mean concentration in vitreous humour, left eye", "value": 1120, "unit": "ng/g"}, {"measurement": "concentration at 5 min", "setting": "[1]; vitreous humour, 150 μg per eye, rat vitreous humour, right eye, 5 min post-dose, 150 μg per eye, read-out: mean concentration in vitreous humour, right eye", "value": 1180, "unit": "ng/g"}, {"measurement": "concentration at 5 min", "setting": "[1]; vitreous humour, 300 μg per rat, mean ketoconazole concentration in vitreous humour, rat vitreous humour, 5 min post-dose, 300 μg/rat topical ocular", "value": 1190, "unit": "ng/g"}, {"measurement": "concentration at 120 min", "setting": "[1]; vitreous humour, 300 μg per rat, mean ketoconazole concentration in vitreous humour, rat vitreous humour, mean of left and right eye", "value": 116, "unit": "ng/g"}, {"measurement": "concentration at 30 min", "setting": "[1]; vitreous humour, 300 μg per rat, rat vitreous humour, mean of left and right eye, read-out: mean concentration in vitreous humour", "value": 713, "unit": "ng/g"}, {"measurement": "mean peak plasma concentration", "setting": "[1]; rat plasma, 5 min post-dose, 300 μg/rat topical ocular", "value": 445, "unit": "ng/mL"}, {"measurement": "biphasic elimination, thereafter", "setting": "[2]; after the first 10 h", "value": 8, "unit": "h"}, {"measurement": "biphasic elimination, during the first 10 h", "setting": "[2]; first 10 h", "value": 2, "unit": "h"}, {"measurement": "time to maximum plasma concentration", "setting": "[2]", "value": "1 to 2", "unit": "h"}]}, {"smiles": "Clc1ccc([C@@]2(Cn3ccnc3)OC[C@H](COc3ccc(N4CCNCC4)cc3)O2)c(Cl)c1", "note": "[M4 (DAK), N-deacetyl ketoconazole]", "values": [{"measurement": "detection in rat plasma", "setting": "[3]; Sprague Dawley", "value": "No N-deacetyl ketoconazole (M4) was found"}, {"measurement": "Relative peak area abundance, COR", "setting": "[3]; Sprague Dawley, rat", "value": 0.2, "unit": "%"}, {"measurement": "detection in rat plasma", "setting": "[3]", "value": "not detected"}]}, {"smiles": "CC(=O)N1CCN(c2ccc(OC[C@H]3CO[C@](Cn4ccnc4)(c4ccc(Cl)cc4Cl)O3)cc2)CC1O", "note": "(some centres unmarked) [Metabolite M1]", "values": [{"measurement": "Relative peak area abundance, COR", "setting": "[4]; [6]", "value": "D (detected in trace amount (the relative abundance was less than 0.1 %))"}, {"measurement": "Relative peak area abundance, VH", "setting": "[4]; [6]", "value": "D (detected in trace amount (the relative abundance was less than 0.1 %))"}]}, {"smiles": "OC[C@H]1CO[C@](Cn2ccnc2)(c2ccc(Cl)cc2Cl)O1", "note": "[Metabolite M2]", "values": [{"measurement": "Relative peak area abundance, COR", "setting": "[4]; [6]", "value": 1.1, "unit": "%"}, {"measurement": "Relative peak area abundance, PLA", "setting": "[4]; [6]", "value": 0.1, "unit": "%"}, {"measurement": "Relative peak area abundance, RET", "setting": "[4]; pooled rat retina homogenate (5, 30, 120 min), selected ion chromatographic peak areas", "value": 1.2, "unit": "%"}, {"measurement": "Relative peak area abundance, VH", "setting": "[4]; [6]", "value": 0.6, "unit": "%"}, {"measurement": "abundance of dominant metabolite in cornea, retina", "setting": "[4]; rat cornea, retina", "value": "1.1-1.2%"}]}, {"smiles": "CC(=O)N1CCN(c2ccc(OC[C@H]3CO[C@](CN)(c4ccc(Cl)cc4Cl)O3)cc2)CC1", "note": "[Metabolite M6]", "values": [{"measurement": "Relative peak area abundance, COR", "setting": "[4]; [6]", "value": 0.1, "unit": "%"}, {"measurement": "Relative peak area abundance, PLA", "setting": "[4]; [6]", "value": 0.6, "unit": "%"}]}]}
